Consider one molecule from patent US20160157483A1, “COMPOSITION FOR THE CLEANING AND PROTECTION OF TECHNICAL SURFACES” (aimecs GmbH, priority 2013, published 2016).

Each structure is given as a SMILES string.

Data set [1] deals with Staphylococcus aureus. Put plainly: S. aureus seeded onto agar plates, inhibition zone. It counts as cell-based. The note with it: 1 mg pure totarol or 10 mg microparticles loaded with about 1 mg totarol, 24 hours at 37° C. The procedure: In further experiments the S. aureus bacteria were seeded onto agar plates and treated with 1 mg of pure totarol, 10 mg of unloaded microparticles, and 10 mg of microparticles loaded with about 1 mg of totarol.

In the next data set the test system is Streptococcus gordonii. The data set can be described thus: Antibacterial effect against Streptococcus gordonii, growth by change of optical density. The conditions noted are these: 5 mg in 6 well plates, 0 h vs 24 h, starting density 1.8; P/S 4%. It is filed as cell-based. As to the method: The microparticles loaded with totarol were then tested for their antibacterial effect against Streptococcus gordonii (S.G.). For this purpose, 5 mg of totarol-loaded microparticles were given into 6 well plates and covered with a solution of S.G. For comparison, 5 mg of unloaded microparticles, 5 mg of free totarol, pure medium (Schaedler Medium of the company BD), medium with S.G. and medium with S.G. and 4% P/S (penicillin streptomycin) as positive control were measured. By means of the change of the optical density the growth of S.G. was determined. The starting density of S.G. was 1.8. In FIG. 3 the measured results at zero hour (left columns) and after 24 hours (right columns) is shown.

In data set [2] the test system is Staphylococcus aureus. The data set can be described thus: Soaked filter paper on agar plates with S. aureus, inhibition zone. It counts as cell-based. The note with it: 24 hours at 37° C., compared with EtAc control. As to the method: The experiment was repeated with filter paper which was soaked with pure totarol, with microparticles loaded with totarol and with EtAc, and which was incubated on agar plates, onto which S. aureus was cultivated.

The next data set has as its system human cells. The conditions noted are these: cited from earlier work.
The subject of the next data set is fresh human whole blood. Put plainly: Hemocompatibility in whole blood according to ISO 10993-4. It is filed as cell-based. The note with it: 1 hour. The procedure:
Finally in vitro tests were performed where totarol and microparticles loaded with totarol were brought into contact with whole blood. The effect on erythrozytes, platelets, leucozytes as well as the complement and coagulation cascade was examined.
The measurements were made according ISO 10993-4, in determining various markers with a central importance within the hemostatic system.
Shown are the means values and standard deviations (n=3).
Shown are the mean values and standard deviations (n=3).

Data set [3] has as its system multi-resistant Staphylococcus aureus (MRSA). The note with it: cited from earlier work.
The test system of a further data set is bacteria. The conditions noted are these: in vitro; cited from earlier work.
The subject of data set [4] is Staphylococcus aureus. The data set can be described thus: Growth of S. aureus in suspension, optical density at 600 nm. It is filed as cell-based. The note with it: dissolved in ethyl acetate, 6 hours of incubation. As to the method: The antibacterial effect on Staphylococcus aureus (S. aureus) of totarol and the microparticles loaded with totarol was tested in vitro in a further experiment. It was shown that a concentration of 0.1 mg/ml of totarol dissolved in ethyl acetate (EtAc) was sufficient to inhibit the growth of S. aureus in suspension after 6 hours of incubation.

For `CC(C)c1c(O)ccc2c1CC[C@H]1C(C)(C)CCC[C@]21C` [totarol, (4bS,8aS)-4b,8,8-Trimethyl-1-propan-2-yl-5,6,7,8a,9,10-hexahydrophenanthren-2-ol], the “inhibition zone on agar plates” value in the data set with Staphylococcus aureus [1] is “clear inhibition zone”. Further, the “reduction of the bacterial concentration (growth of S.G. by optical density)” value in the data set on Streptococcus gordonii is reported as “stronger reduction of the bacterial concentration than totarol-loaded microparticles”. Further, the “inhibition zone around the filter paper” value in the data set with Staphylococcus aureus [2] is given as “clear inhibition zone”. Besides, the “concentration at which toxic and inhibits the growth of human cells” value in the data set on human cells is recorded as “more than 5 μg/ml”. Further, the “effects on the hemostatic system” value in the data set on fresh human whole blood (0.1 mg/ml totarol, 1 mg/ml totarol MP, vs control and unloaded microparticles) is on record as “neither totarol nor the microparticles loaded with totarol have negative effects”. The hemocompatibility entry in the data set with fresh human whole blood (blood contact) is listed as “good hemocompatibility”. In addition, the “effectiveness against MRSA” value in data set [3] is on record as “effective”. Moreover, in the data set with bacteria, the “minimum concentration where totarol still has an antibacterial effect” value is 2 µg/mL. For the same molecule, the “concentration sufficient to inhibit the growth of S. aureus in suspension” value with Staphylococcus aureus [4] amounted to 0.1 mg/mL.
